From US20260098033A1, “NOVEL CRYSTALLINE FORM OF ENAVOGLIFLOZIN, AND PREPARATION METHOD THEREFOR” (DAEWOONG PHARMACEUTICAL CO., LTD., priority 2022, published 2026) come the findings set out here.

Bounds are passed on as bounds.

A short description of data set [1]: Evaluation of hygroscopicity (weight change in desiccators at set relative humidity). In kind it is physicochemical. The settings on record: for Weight change: two days or more, 60 mg. On the procedure: The crystalline form A of enavogliflozin in the known Korean Unexamined Patent Application Publication No. 2017-0142904 and the enavogliflozin crystalline form E were taken in amounts of 60 mg each and placed in desiccators at relative humidity of 11%, 33%, 54%, 75%, and 93%, each for two days or more to absorb moisture, and then the weight change was measured.

A short description of data set [2]: Stress stability evaluation for heat (60° C.), HPLC purity. In kind it is physicochemical. The settings on record: for Purity: 60° C. An excerpt:
(§1) To confirm the possibility of commercializing the novel crystalline form E of enavogliflozin of the present invention, the crystalline form A of enavogliflozin in Korean Unexamined Patent Application Publication No. 2017-0142904 was used as a control to test stress stability, and analyzed by high performance liquid chromatography (HPLC), and the results are shown in Tables 4 and 5.

A short description of data set [3]: Stress stability evaluation for moisture (93% RH), HPLC purity. In kind it is physicochemical. The note with it: for Purity: 93% RH.
Excerpt: as §1

A short description of data set [4]: Pharmacokinetic study in beagle dogs, oral administration. In kind it is in vivo, beagle dog. The settings on record: 1 mg/kg. As for the experimental part: Pharmacokinetic profiles of crystalline form A of enavogliflozin and the novel crystalline form E were to be confirmed in beagle dogs. The crystalline form A of enavogliflozin was set as a control, the novel crystalline form E was set as a comparison group, and each of the crystalline form A of enavogliflozin and the novel crystalline form E was orally administered to a male beagle dog at a dose of 1 mg/kg, and blood samples were collected before administration (0 hours), and at 0.083, 0.25, 0.5, 0.75, 1, 1.5, 2, 4, 6, 8, 12, and 24 hours (a total of 13 times). Blood drug concentrations were analyzed by LC-MS/MS using plasma separated from the collected samples, and pharmacokinetic parameters such as the maximum observed plasma concentration (Cmax), an area under the plasma concentration-time curve (AUClast and AUCinf), a time-to-maximum observed plasma concentration (Tmax), and a half-life (T1/2) were calculated and interpreted using the WinNonlin 5.0.1 program.

Setting [5] is: beagle dog, relative to crystalline form A.

On to `OC[C@H]1O[C@@H](c2cc(Cc3ccc(C4CC4)cc3)c(Cl)c3c2CCO3)[C@H](O)[C@@H](O)[C@@H]1O` [Crystalline form A of enavogliflozin, enavogliflozin], for which the Weight change in data set [1] (relative humidity 11%) stood at 0%; in data set [1] (relative humidity 33%), 0.5%; in data set [1] (relative humidity 54%) it was 0.5%; in data set [1] (relative humidity 75%), 0.5%; in data set [1] (relative humidity 93%), 0.5%. Further, the Purity in data set [2] (Initial, HPLC) came to 99.1%; in data set [2] (Week 2, HPLC) it was 98.8%; in data set [2] (Week 4, HPLC), 99.1%; in data set [2] (Week 8, HPLC), 99.5%; in data set [3] (Initial, HPLC), 99.8%; in data set [3] (Week 2, HPLC), 99.8%. The compound also yielded a Purity in data set [3] (Week 4, HPLC) of 99.8%.
In the case of `OC[C@H]1O[C@@H](c2cc(Cc3ccc(C4CC4)cc3)c(Cl)c3c2CCO3)[C@H](O)[C@@H](O)[C@@H]1O` [Crystalline form E of enavogliflozin, enavogliflozin], the “Hygroscopicity compared to crystalline form A (in words)” value in data set [1] (relative humidity 11% to 93%) is on record as “more improved hygroscopicity”. Further, the Weight change was found to be 0% in data set [1] (relative humidity 11%); 0.3% in data set [1] (relative humidity 33%); 0.3% in data set [1] (relative humidity 54%); 0.3% in data set [1] (relative humidity 75%); 0.3% in data set [1] (relative humidity 93%). Besides, the “Stress stability, purity and crystalline form (in words)” value in data set [2] (8 weeks at 60° C.) and in data set [3] (4 weeks at 93% RH) was “stably maintained” throughout. The Purity in data set [2] (Initial, HPLC) is given as 99.0%; in data set [2] (Week 2, HPLC), 99.2%; in data set [2] (Week 4, HPLC), 99.2%; in data set [2] (Week 8, HPLC), 99.5%; in data set [3] (Initial, HPLC), 99.0%; in data set [3] (Week 2, HPLC) it was 99.3%. Further, the Purity in data set [3] (Week 4, HPLC) came out at 99.3%. In data set [4] (setting [5]), the “PK exposure parameters AUClast and AUCinf compared to crystalline form A (in words)” value is reported as “increased”. Also, the “Tmax reduction compared to crystalline form A” value in data set [4] (setting [5]) is at least 1.25 times. In addition, the AUC(0-inf) – broadly, the area under the concentration-time curve extrapolated to infinity – in data set [4] (male beagle dog, plasma) was determined as 4820 ng·h/mL. In addition, the AUC(0-t) (commonly exposure summed from dosing to a finite time, without extrapolation to infinity) in data set [4] (male beagle dog, plasma) was found to be 4540 ng·h/mL. For the same compound, the concentration in data set [4] (male beagle dog, plasma) peaked (Cmax) at 470 ng/mL. The Tmax (usually the time from dosing to the highest level) in data set [4] (male beagle dog, plasma) turned out to be 3.2 h. Further, the half-life – broadly, the time in which the quantity being followed falls by half – in data set [4] (male beagle dog, plasma) was 5.04 h.
